Laboratory results from US6796312B2, “Process and apparatus for the removal of toxic components of tobacco smoke and the standardization of the health hazards related to those components” (priority 2001, dated 2004).

Columns and labels:
[1] = Non-enzymatic oxidation of NADH2 by aged NDGA solutions
Experimental: Oxidation of reduced nicotinamide-adenine dinucleotide by nordihydroguaiaretic acid in the presence of PO4 buffer at pH 7.0 occurs at a slow rate, (See Burk and Woods (1963) and references to findings of […]. and […]. reported therein). Although this oxidation was very small under the conditions of experiment, an interaction correction factor was determined and applied to all reduced nicotinamide-adenine dinucleotide-nordihydroguaiaretic acid-mycloperoxidase assay reactions. [table] The effect of aging nordihydroguaiaretic acid solutions (0.5 mg. nordihydroguaiaretic acid dissolved in 0.02 ml. of ethyl alcohol plus 0.98 ml. of 0.15 Molar Na2HPO4.KH2PO4 buffer, pH 7.0) on the oxidation of reduced nicotinamide-adenine dinucleotide by nordihydroguaiaretic acid is shown above in Table VI. At 35° C., the latter undergoes a slow visible auto-oxidation change, from a near colorless solution (the reduced form of the orthoquinone) immediately after preparation, to a yellow brown colloidal suspension (probably the quinone form) with the yellow-brown material tending to precipitate slowly during the course of several hours. The sedimentation of nordihydroguaiaretic acid and its accumulation and adherence upon the inner glass surface of test tubes was avoided by shaking the solution periodically. The slow oxidation of reduced nicotinamide-adenine dinucleotide by nordihydroguaiaretic acid during the first forty-five (45) minutes can be more than twice the rate of subsequent time periods. Once the lowest rate of oxidation of reduced nicotinamide-adenine dinucleotide is achieved by the aging of nordihydroguaiaretic acid solutions, it remains constant for at least eight (8) hours.

[2] = test system: turnip peroxidase; conditions: 2.7×10^−4 Molar (80 ppm); cited from earlier work
[3] = test system: caries; conditions: hamsters in vivo; cited from earlier work

CC(Cc1ccc(O)c(O)c1)C(C)Cc1ccc(O)c(O)c1 (stereo not drawn) [NDGA, beta, gamma-dimethyl-alpha, ortho-bis (3,4 dihydroxiphenyl) butane]
Rate of Oxidation of NADH2 ([1]; NDGA solution aged 10 minutes at 35° C., pH 7.0, Experiment 3): .017 Optical Density (O.D.) Units per 100 Seconds | Rate of Oxidation of NADH2 ([1]; NDGA solution aged 15 minutes, Experiment 2): .020 Optical Density (O.D.) Units per 100 Seconds | Rate of Oxidation of NADH2 ([1]; NDGA solution aged 45 minutes, Experiment 1): .027 Optical Density (O.D.) Units per 100 Seconds | Rate of Oxidation of NADH2 ([1]; NDGA solution aged 60 minutes, Experiment 3): .013 Optical Density (O.D.) Units per 100 Seconds | Rate of Oxidation of NADH2 ([1]; NDGA solution aged 110 minutes, Experiment 1): .011 Optical Density (O.D.) Units per 100 Seconds | Rate of Oxidation of NADH2 ([1]; NDGA solution aged 120 minutes, Experiment 3): .011 Optical Density (O.D.) Units per 100 Seconds | Rate of Oxidation of NADH2 ([1]; NDGA solution aged 140 minutes, Experiment 2): .014 Optical Density (O.D.) Units per 100 Seconds | Rate of Oxidation of NADH2 ([1]; NDGA solution aged 175 minutes, Experiment 1): .012 Optical Density (O.D.) Units per 100 Seconds | Rate of Oxidation of NADH2 ([1]; NDGA solution aged 180 minutes, Experiment 3): .012 Optical Density (O.D.) Units per 100 Seconds | Rate of Oxidation of NADH2 ([1]; NDGA solution aged 215 minutes, Experiment 2): .014 Optical Density (O.D.) Units per 100 Seconds | Rate of Oxidation of NADH2 ([1]; NDGA solution aged 240 minutes, Experiment 3): .012 Optical Density (O.D.) Units per 100 Seconds | Rate of Oxidation of NADH2 ([1]; NDGA solution aged 270 minutes, Experiment 1): .011 Optical Density (O.D.) Units per 100 Seconds | Rate of Oxidation of NADH2 ([1]; NDGA solution aged 285 minutes, Experiment 2): .014 Optical Density (O.D.) Units per 100 Seconds | Rate of Oxidation of NADH2 ([1]; NDGA solution aged 323 minutes, Experiment 1): .011 Optical Density (O.D.) Units per 100 Seconds | Rate of Oxidation of NADH2 ([1]; NDGA solution aged 380 minutes, Experiment 3): .011 Optical Density (O.D.) Units per 100 Seconds | Rate of Oxidation of NADH2 ([1]; NDGA solution aged 440 minutes, Experiment 3): .011 Optical Density (O.D.) Units per 100 Seconds | Rate of Oxidation of NADH2 ([1]; NDGA solution aged 485 minutes, Experiment 3): .010 Optical Density (O.D.) Units per 100 Seconds | inhibition of turnip peroxidase [2]: 71% | anti-caries effect [3]: effective experimental anti-caries agent
